This note sets out measurements from patent US11285156B2, “Substituted piperazines as KRAS G12C inhibitors” (Amgen Inc., priority 2018, dated 2022).

Test [1] concerns Phosphorylation of ERK1/2 in MIA PaCa-2 cells. The experiment in a line: Phospho-ERK1/2 MSD assay in MIA PaCa-2 cells. The test is classed as cell-based. The following applies: read-out: p-ERK IC50 (2 h, MiaPaCa-2; μM). The protocol: (§1) Phospho-ERK1/2 MSD Assay:
(§2) Sixteen hours prior to compound treatment, MIA PaCa-2 or A549 cells were seeded in 96-well cell culture plates at a density of 25,000 cells/well and incubated at 37° C., 5% CO2. A compound dose-response titration was diluted in growth media, added to appropriate wells of a cell culture plate, and then incubated at 37° C., 5% CO2 for 2 or 4 hours (see Table 15). Following compound treatment, cells were stimulated with 10 ng/mL EGF (Roche 11376454001) for 10 min, washed with ice-cold Dulbecco's phosphate-buffered saline, no Ca2+ or Mg2+ (ThermoFisher Scientific 14190144), and then lysed in RIPA buffer (50 mM Tris-HCl pH 7.5, 1% Igepal, 0.5% sodium deoxycholate, 150 mM NaCl. and 0.5% sodium dodecyl sulfate) containing protease inhibitors (Roche 4693132001) and phosphatase inhibitors (Roche 4906837001). Phosphorylation of ERK1/2 in compound-treated lysates was assayed using Phospho-ERK1/2 Whole Cell Lysate kits (Meso Scale Discovery K151DWD) according to the manufacturer's protocol.

Test [2] deals with Phosphorylation of ERK1/2 in A549 cells. As to the kind of experiment: Phospho-ERK1/2 MSD assay in A549 cells. The test is classed as cell-based. The conditions noted are these: read-out: p-ERK IC50 (2 h, A549; μM). How it is done: as §1
as §2, with “MIA PaCa-2 (ATCC® CRL-1420™) and A549 (ATCC® CCL-185™) cells were cultured in RPMI 1640 Medium (ThermoFisher Scientific 11875093) containing 10% fetal bovine serum (ThermoFisher Scientific 16000044) and 1× penicillin-streptomycin-glutamine (ThermoFisher Scientific 10378016). Sixteen” for “Sixteen”

Where [3] appears, read: Homo sapiens, MIA PaCa-2, 2 h, 2 h compound treatment, MIA PaCa-2 cells, EGF stimulated.
Setting [4] is: Homo sapiens, A549, 2 h, 2 h compound treatment, A549 cells, EGF stimulated.
Setting [5] is: 2 h compound treatment, MIA PaCa-2 cells, EGF stimulated.
The mark [6] stands for this setting: 2 h compound treatment, A549 cells, EGF stimulated.

Like-named read-outs stand apart in the source and are kept apart here.

By IC50 is commonly meant the concentration at which inhibition is half-maximal. With `C=CC(=O)N1C[C@H](C)N(c2nc(=O)n(-c3c(C)ccnc3C(C)C)c3nc(-c4cc(C)sc4C)c(Cl)cc23)C[C@H]1C` (atropisomer, axis not shown; (M)) [Example 92-7, (M)-6-Chloro-4-[(2S,5R)-2,5-dimethyl-4-prop-2-enoyl-piperazin-1-yl]-7-(2,5-dimethyl-3-thienyl)-1-(2-isopropyl-4-methyl-3-pyridyl)pyrido [2,3-d]pyrimidin-2-one], the IC50 is 0.259 µM in test [1] (setting [3]) and over 7.5 µM in test [2] (setting [4]).

On to `C=CC(=O)N1C[C@H](C)N(c2nc(=O)n(-c3c(C)ccnc3C(C)C)c3nc(-c4cc(F)c(F)c(F)c4N)c(Cl)cc23)C[C@H]1C` (atropisomer, axis not shown; (M)) [Example 92-38, (M)-7-(2-Amino-3,4,5-trifluoro-phenyl)-6-chloro-4-[(2S,5R)-2,5-dimethyl-4-prop-2-enoyl-piperazin-1-yl]-1-(2-isopropyl-4-methyl-3-pyridyl)pyrido [2,3-d]pyrimidin-2-one], for which the IC50 in test [1] (setting [3]) was 0.042 µM; in test [2] (setting [4]), over 7.5 µM.

As to `C=CC(=O)N1C[C@H](C)N(c2nc(=O)n(-c3c(C)ccnc3C(C)C)c3nc(-c4ccccc4CO)c(F)cc23)C[C@H]1C` (atropisomer, axis not shown; (M)) [Example 94-2, (M)-4-[(2S,5R)-2,5-dimethyl-4-prop-2-enoyl-piperazin-1-yl]-6-fluoro-7-[2-(hydroxymethyl)phenyl]-1-(2-isopropyl-4-methyl-3-pyridyl)pyrido [2,3-d]pyrimidin-2-one], the IC50 was 0.204 µM in test [1] (Homo sapiens, MIA PaCa-2, 2 h) and over 7.5 µM in test [2] (Homo sapiens, A549, 2 h).

In the case of `C=CC(=O)N1C[C@H](C)N(c2nc(=O)n(-c3c(C)ccnc3C(C)C)c3nc(-c4c(F)cccc4[S+](C)[O-])c(Cl)cc23)C[C@H]1C` (atropisomer, axis not shown; (M)) [Example 211-1, (M)-4-((2S,5R)-4-Acryloyl-2,5-dimethylpiperazin-1-yl)-6-chloro-7-(2-fluoro-6-(methylsulfinyl)phenyl)-1-(2-isopropyl-4-methylpyridin-3-yl)pyrido[2,3-d]pyrimidin-2(1H)-one], the IC50 is 0.128 µM in test [1] (setting [5]) and over 7.5 µM in test [2] (setting [4]).

Turning to `C=CC(=O)N1C[C@H](C)N(c2nc(=O)n(-c3c(C)ccnc3C(C)C)c3nc(-c4c(F)cccc4[S+](C)[O-])c(Cl)cc23)C[C@H]1C` (atropisomer, axis not shown; (M)) [Example 211-2, (M)-4-((2S,5R)-4-Acryloyl-2,5-dimethylpiperazin-1-yl)-6-chloro-7-(2-fluoro-6-(methylsulfinyl)phenyl)-1-(2-isopropyl-4-methylpyridin-3-yl)pyrido[2,3-d]pyrimidin-2(1H)-one], the figures for the IC50 in test [1] (setting [5]) and in test [2] (setting [6]) were 0.106 µM and over 7.5 µM, respectively.

Consider `C=CC(=O)N1C[C@H](C)N(c2nc(=O)n(-c3c(C)ccnc3C(C)C)c3nc(-c4c(F)cccc4[S+](C)[O-])c(Cl)cc23)C[C@H]1C` (atropisomer, axis not shown; (M)) [Example 211-3, (M)-4-((2S,5R)-4-Acryloyl-2,5-dimethylpiperazin-1-yl)-6-chloro-7-(2-fluoro-6-(methylsulfinyl)phenyl)-1-(2-isopropyl-4-methylpyridin-3-yl)pyrido[2,3-d]pyrimidin-2(1H)-one], for which the IC50 in test [1] (setting [5]) was 0.253 µM; in test [2] (setting [6]), over 7.5 µM.

With `C=CC(=O)N1C[C@H](C)N(c2nc(=O)n(-c3c(C)ccnc3C(C)C)c3nc(-c4ccccc4[S+](C)[O-])c(Cl)cc23)C[C@H]1C` (atropisomer, axis not shown; (M)) [Example 212-1, (M)-4-((2S,5R)-4-Acryloyl-2,5-dimethylpiperazin-1-yl)-6-chloro-1-(2-isopropyl-4-methylpyridin-3-yl)-7-(2-(methylsulfinyl)phenyl)pyrido[2,3-d]pyrimidin-2(1H)-one], the values for the IC50 in test [1] (setting [5]) and in test [2] (setting [4]) were 0.705 µM and over 7.5 µM, respectively.

`C=CC(=O)N1C[C@H](C)N(c2nc(=O)n(-c3c(C)ccnc3C(C)C)c3nc(-c4ccccc4[S+](C)[O-])c(Cl)cc23)C[C@H]1C` (atropisomer, axis not shown; (M)) [Example 212-2, (M)-4-((2S,5R)-4-Acryloyl-2,5-dimethylpiperazin-1-yl)-6-chloro-1-(2-isopropyl-4-methylpyridin-3-yl)-7-(2-(methylsulfinyl)phenyl)pyrido[2,3-d]pyrimidin-2(1H)-one]: the IC50 in test [1] (setting [5]) was 0.237 µM; in test [2] (setting [6]), over 7.5 µM.

With `C=CC(=O)N1C[C@H](C)N(c2nc(=O)n(-c3c(C)ccnc3C(C)C)c3nc(-c4c(F)cccc4S(C)(=O)=O)c(Cl)cc23)C[C@H]1C` (atropisomer, axis not shown; (M)) [Example 214, (M)-4-((2S,5R)-4-Acryloyl-2,5-dimethylpiperazin-1-yl)-6-chloro-7-(2-fluoro-6-(methylsulfonyl)phenyl)-1-(2-isopropyl-4-methylpyridin-3-yl)pyrido[2,3-d]pyrimidin-2(1H)-one], the IC50 in test [1] (setting [5]) was 0.025 µM; in test [2] (setting [6]), over 7.5 µM.

Turning to `C=CC(=O)N1C[C@H](C)N(c2nc(=O)n(-c3c(C)ccnc3C(C)C)c3nc(-c4c(F)cccc4S(C)(=O)=O)c(Cl)cc23)C[C@H]1C` (atropisomer, axis not shown; (M)) [Example 214-1, (M)-4-((2S,5R)-4-Acryloyl-2,5-dimethylpiperazin-1-yl)-6-chloro-7-(2-fluoro-6-(methylsulfonyl)phenyl)-1-(2-isopropyl-4-methylpyridin-3-yl)pyrido[2,3-d]pyrimidin-2(1H)-one], the IC50 is 0.03 µM in test [1] (setting [3]) and over 7.5 µM in test [2] (setting [4]).

On to `C=CC(=O)N1C[C@H](C)N(c2nc(=O)n(-c3c(C)ccnc3C(C)C)c3nc(-c4cc(S(C)(=O)=O)ccc4F)c(Cl)cc23)C[C@H]1C` (atropisomer, axis not shown; (M)) [Example 223, (M)-4-((2S,5R)-4-Acryloyl-2,5-dimethylpiperazin-1-yl)-6-chloro-7-(2-fluoro-5-(methylsulfonyl)phenyl)-1-(2-isopropyl-4-methylpyridin-3-yl)pyrido[2,3-d]pyrimidin-2(1H)-one], for which the IC50 in test [1] (setting [3]) is 0.659 µM; in test [2] (setting [4]), over 7.5 µM.

Turning to `C=CC(=O)N1C[C@H](C)N(c2nc(=O)n(-c3c(C)cncc3C(C)C)c3nc(-c4ccccc4F)c(Cl)cc23)C[C@H]1C` (single isomer, unassigned) [Example 100-8], the figures for the IC50 in test [1] (setting [3]) and in test [2] (setting [4]) were 0.042 µM and over 7.5 µM, respectively.

For the compound `C=CC(=O)N1C[C@H](C)N(c2nc(=O)n(-c3c(C(C)C)ccnc3C(C)C)c3nc(-c4ccccc4Cl)c(Cl)cc23)C[C@H]1C` (single isomer, unassigned) [Example 124-6], the IC50 in test [1] (setting [3]) is 0.062 µM; in test [2] (setting [4]), over 7.5 µM.

With `C=CC(=O)N1C[C@H](C)N(c2nc(=O)n(-c3c(C(C)C)ccnc3C(C)C)c3nc(-c4ccccc4C)c(Cl)cc23)C[C@H]1C` (single isomer, unassigned) [Example 125-2], the IC50 in test [1] (setting [5]) is 0.038 µM; in test [2] (setting [6]), over 7.5 µM.

In the case of `C=CC(=O)N1C[C@H](C)N(c2nc(=O)n(-c3c(C(C)C)ccnc3C(C)C)c3nc(-c4ccccc4C(F)(F)F)c(Cl)cc23)C[C@H]1C` (single isomer, unassigned) [Example 125-3], the IC50 was 0.041 µM in test [1] (setting [5]) and over 7.5 µM in test [2] (setting [6]).

On to `C=CC(=O)N1C[C@H](C)N(c2nc(=O)n(-c3c(C(C)C)ccnc3C(C)C)c3nc(-c4c(O)cccc4F)c(Cl)cc23)C[C@H]1C` (single isomer, unassigned) [Example 125-4], for which the IC50 in test [1] (setting [5]) was 0.023 µM; in test [2] (setting [6]) it was over 7.5 µM.

`C=CC(=O)N1C[C@H](C)N(c2nc(=O)n(-c3c(C(C)C)ccnc3C(C)C)c3nc(-c4ccccc4Cl)c(Cl)cc23)C[C@H]1C` (single isomer, unassigned) [Example 125-6]: the IC50 in test [1] (setting [5]) was 0.105 µM; in test [2] (setting [6]), over 7.5 µM.

Take `C=CC(=O)N1C[C@H](C)N(c2nc(=O)n(-c3c(C(C)C)ccnc3C(C)C)c3nc(-c4ccccc4)c(Cl)cc23)C[C@H]1C` (single isomer, unassigned) [Example 125-7]: the IC50 is 0.137 µM in test [1] (setting [5]) and over 7.5 µM in test [2] (setting [6]).
